Like-named read-outs stand apart in the source and are kept apart here.
How the values were obtained:
[1] = system: Pseudomonas aeruginosa (PA1 - ESBL producing); experiment: Checkerboard MIC, Pseudomonas aeruginosa PA1; format: cell-based; conditions: for MIC in combination: Ertapenem + Aztreonam combination, Table 1; for MIC: Pseudomonas aeruginosa, PA1, read-out: MIC when taken individually
Experimental: (§1) The synergistic outcome of the combination was recorded as a concave curve.
(§2) The checkerboard array was performed in order to find the MIC's of selected antibacterial agents against the strains of Pseudomonas aeruginosa, Acinetobacter baumannii, Klebsiella pneumoniae and MRSA (Methicillin Resistant Staphylococcus aureus).
(§3) • 1. A total of 50 μl of Mueller-Hinton broth was distributed into each well of the micro dilution plates. • 2. The first antibiotic (A) of the combination was serially twofold diluted along the Y-axis, while the second antibiotic (B) was diluted along the X-axis. • 3. An inoculum equal to a 0.5 McFarland turbidity standard was prepared from each culture in sterile saline. • 4. Each micro titer well was inoculated with 100 μl of a bacterial inoculum and the plate was loaded on ELISA plate reader (37° C. for 24 hrs). Formula for ΣFIC (Fractional inhibitory concentration): […]
(§4) Where FIC A is the MIC of drug A in the combination/MIC of drug A alone,
(§5) FIC B is the MIC of drug B in the combination/MIC of drug B alone.
(§6) The combination is considered synergistic when the ΣFIC is ≦0.5, indifferent when the ΣFIC is >0.5 to <2, and antagonistic when the ΣFIC is ≧2.

[2] = system: Klebsiella pneumoniae (VIM producing); experiment: Checkerboard MIC, Klebsiella pneumoniae; format: cell-based; conditions: for MIC: Klebsiella pneumoniae, single drug, read-out: MIC when taken individually
Experimental: as §2, §3, §4, §5, §6

Acinetobacter baumanii = experiment: Checkerboard MIC, Acinetobacter baumanii; format: cell-based, Acinetobacter baumannii; conditions: for MIC: Acinetobacter baumannii, single drug, read-out: MIC when taken individually
Experimental: as §1, §2, §3, §4, §5, §6

[3] = system: Methicillin Resistant Staphylococcus aureus (MRSA); experiment: Checkerboard MIC, MRSA; format: cell-based; conditions: for MIC: Staphylococcus aureus, MRSA, read-out: MIC when taken individually
Experimental: as §1, §2, §3, §4, §5, §6

[4] = system: Pseudomonas aeruginosa ATCC 27853; experiment: Checkerboard MIC, Pseudomonas aeruginosa ATCC 27853; format: cell-based; conditions: for MIC in combination: Meropenem + Aztreonam combination, Table 6; for MIC: Pseudomonas aeruginosa, ATCC27853, read-out: MIC when taken individually
Experimental: as §2, §3, §4, §5, §6

[5] = Ertapenem 4.88 + Aztreonam 39.06
[6] = Ertapenem 9.76 + Aztreonam 19.53
[7] = Ertapenem 19.53 + Aztreonam 9.76
[8] = Ertapenem 1.22 + Aztreonam 2.44
[9] = Ertapenem 2.44 + Aztreonam 4.88
[10] = Ertapenem 4.88 + Aztreonam 9.76
[11] = Ertapenem + Aztreonam combination, Table 2
[12] = Meropenem/Aztreonam checkerboard, Table 5
[13] = Meropenem 0.097 + Aztreonam 19.53
[14] = Meropenem 0.195 + Aztreonam 9.76
[15] = Meropenem + Aztreonam combination, Table 5
[16] = Ertapenem/Aztreonam checkerboard, Table 3
[17] = Meropenem/Aztreonam checkerboard, Table 8
[18] = Ertapenem 0.61 + Aztreonam 312.5
[19] = Ertapenem 1.22 + Aztreonam 156.25
[20] = Ertapenem 2.44 + Aztreonam 78.12
[21] = Ertapenem + Aztreonam combination, Table 3
[22] = Meropenem 1.22 + Aztreonam 9.76
[23] = Meropenem 2.44 + Aztreonam 4.88
[24] = Meropenem + Aztreonam combination, Table 8
[25] = Ertapenem + Aztreonam combination, Table 4
[26] = Meropenem 6.1 + Aztreonam 19.53
[27] = Meropenem 12.2 + Aztreonam 9.76
[28] = Meropenem + Aztreonam combination, Table 7
[29] = Meropenem 0.0488 + Aztreonam 19.53
[30] = Meropenem 0.097 + Aztreonam 9.76

## C[C@H]1[C@H](NC(=O)/C(=N\OC(C)(C)C(=O)O)c2csc(N)n2)C(=O)N1S(=O)(=O)O [Aztreonam]
[1]; [5]
  FIC of Aztreonam (y-co-ordinate): 1.0
[1]; [6]
  FIC of Aztreonam (y-co-ordinate): 0.5
[1]; [7]
  FIC of Aztreonam (y-co-ordinate): 0.249
[1]
  MIC in combination: 9.76 µg/mL
  MIC: 39.1 µg/mL
[2]; [8]
  FIC of Aztreonam (y-co-ordinate): 0.00195
[2]; [9]
  FIC of Aztreonam (y-co-ordinate): 0.0039
[2]; [10]
  FIC of Aztreonam (y-co-ordinate): 0.0078)
[2]; [6]
  FIC of Aztreonam (y-co-ordinate): 0.016)
[2]; [11]
  MIC in combination: 1.22 µg/mL
[2]; [12]
  MIC: 1200 µg/mL
[2]; [13]
  FIC of Aztreonam (y-coordinate): 0.016
[2]; [14]
  FIC of Aztreonam (y-coordinate): 0.078
[2]; [15]
  MIC in combination: 9.76 µg/mL
Acinetobacter baumanii; [16]
  MIC: 10000 µg/mL
Acinetobacter baumanii; [17]
  MIC: 5000 µg/mL
Acinetobacter baumanii; [18]
  FIC of Aztreonam (y-co-ordinate): 0.0313)
Acinetobacter baumanii; [19]
  FIC of Aztreonam (y-co-ordinate): 0.0156
Acinetobacter baumanii; [20]
  FIC of Aztreonam (y-co-ordinate): 0.0078
Acinetobacter baumanii; [21]
  MIC in combination: 78.12 µg/mL
Acinetobacter baumanii; [22]
  FIC of Aztreonam (y-co-ordinate): 0.0039
Acinetobacter baumanii; [23]
  FIC of Aztreonam (y-co-ordinate): 0.00195
Acinetobacter baumanii; [24]
  MIC in combination: 4.88 µg/mL
[3]; [5]
  FIC of Aztreonam (y-co-ordinate): 0.0078
[3]; [6]
  FIC of Aztreonam (y-co-ordinate): 0.0039
[3]; [7]
  FIC of Aztreonam (y-co-ordinate): 0.001952
[3]; [25]
  MIC in combination: 9.76 µg/mL
[3]; [26]
  FIC of Aztreonam (y-co-ordinate): 0.039
[3]; [27]
  FIC of Aztreonam (y-co-ordinate): 0.001952
[3]; [28]
  MIC in combination: 19.53 µg/mL
[3]
  MIC: 5000 µg/mL
[3]; single drug, Ertapenem/Aztreonam checkerboard, Table 4
  MIC when taken individually: 5000 µg/mL
[4]; [29]
  FIC of Aztreonam (y-co-ordinate): 0.5
[4]; [30]
  FIC of Aztreonam (y-co-ordinate): 0.25
[4]
  MIC in combination: 4.88 µg/mL
  MIC: 39.1 µg/mL

## C[C@@H](O)[C@H]1C(=O)N2C(C(=O)O)=C(S[C@@H]3CN[C@H](C(=O)Nc4cccc(C(=O)O)c4)C3)[C@H](C)[C@H]12 [Ertapenem]
[1]; [5]
  FIC of Ertapenem (x-co-ordinate): 0.5
[1]; [6]
  FIC of Ertapenem (x-co-ordinate): 1.0
[1]; [7]
  FIC of Ertapenem (x-co-ordinate): 2.0
[1]
  MIC in combination: 4.88 µg/mL
  MIC: 9.76 µg/mL
[2]; [8]
  FIC of Ertapenem (x-co-ordinate): 0.25
[2]; [9]
  FIC of Ertapenem (x-co-ordinate): 0.5
[2]; [10]
  FIC of Ertapenem (x-co-ordinate): (1.0,
[2]; [6]
  FIC of Ertapenem (x-co-ordinate): (2.0,
[2]; [11]
  MIC in combination: 4.88 µg/mL
[2]; Ertapenem/Aztreonam checkerboard, Table 2
  MIC: 1.22 µg/mL
Acinetobacter baumanii; [16]
  MIC: 9.76 µg/mL
Acinetobacter baumanii; [18]
  FIC of Ertapenem (x-co-ordinate): (0.0625,
Acinetobacter baumanii; [19]
  FIC of Ertapenem (x-co-ordinate): 0.125
Acinetobacter baumanii; [20]
  FIC of Ertapenem (x-co-ordinate): 0.25
Acinetobacter baumanii; [21]
  MIC in combination: 0.61 µg/mL
[3]; [5]
  FIC of Ertapenem (x-co-ordinate): 0.5
[3]; [6]
  FIC of Ertapenem (x-co-ordinate): 1
[3]; [7]
  FIC of Ertapenem (x-co-ordinate): 2
[3]; [25]
  MIC in combination: 4.88 µg/mL
[3]
  MIC: 9.76 µg/mL

## C[C@@H](O)[C@H]1C(=O)N2C(C(=O)O)=C(S[C@@H]3CN[C@H](C(=O)N(C)C)C3)[C@H](C)[C@H]12 [Meropenem]
[2]; [12]
  MIC: 0.781 µg/mL
[2]; [13]
  FIC of Meropenem (x-co-ordinate): 0.124
[2]; [14]
  FIC of Meropenem (x-co-ordinate): 0.2496
[2]; [15]
  MIC in combination: 0.097 µg/mL
Acinetobacter baumanii; [17]
  MIC: 19.5 µg/mL
Acinetobacter baumanii; [22]
  FIC of Meropenem (x-co-ordinate): 0.0625
Acinetobacter baumanii; [23]
  FIC of Meropenem (x-co-ordinate): 0.125
Acinetobacter baumanii; [24]
  MIC in combination: 1.22 µg/mL
[3]; [26]
  FIC of Meropenem (x-co-ordinate): 0.5
[3]; [27]
  FIC of Meropenem (x-co-ordinate): 1
[3]; [28]
  MIC in combination: 6.1 µg/mL
[3]
  MIC: 12.2 µg/mL
[4]; [29]
  FIC of Meropenem (x-co-ordinate): 0.25
[4]; [30]
  FIC of Meropenem (x-co-ordinate): 0.497
[4]; Meropenem 0.195 + Aztreonam 4.88
  FIC of Meropenem (x-co-ordinate): 1.0
[4]
  MIC in combination: 0.0488 µg/mL
  MIC: 0.195 µg/mL
